Measurements taken from ChEMBL document CHEMBL1201862, “PubChem BioAssay data set” (2004).
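1) Cells in 96-well plates. 2) Compound, 48 h, 5 concentrations. 3) Linear interpolation between surrounding doses. 4) Unreached endpoint = highest concentration. GI50: concentration for 50% inhibition of growth.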 Calls of active or inactive are those of the source. No stated cut-off is given here; in the data, active = GI50 up to about 1.1 µM and inactive = higher.

How the values were obtained:
Assay in all cases: NCI anticancer screen, dose series, 48 h
HCC 2998 = system: HCC 2998
IGROV-1 = system: IGROV-1
KM12 = system: KM12
LOX IMVI = system: LOX IMVI
LXFL 529 = system: LXFL 529
MOLT-4 = system: MOLT-4
NCI-H460 = system: NCI-H460
OVCAR-3 = system: OVCAR-3
OVCAR-5 = system: OVCAR-5
OVCAR-8 = system: OVCAR-8
SF-268 = system: SF-268
SK-MEL-5 = system: SK-MEL-5
SN12C = system: SN12C
SNB-19 = system: SNB-19
SNB-75 = system: SNB-75
SW-620 = system: SW-620
HOP-92 = system: HOP-92
BT-549 = system: BT-549
Hs-578T = system: Hs-578T
MDA-MB-231 = system: MDA-MB-231

Measured: GI50

COc1ccc(-c2onc(-c3ccc([N+](=O)[O-])cc3)c2C2=NCCCN2)cc1
inactive: HCC 2998 > 100 µM | IGROV-1 > 100 µM | KM12 > 100 µM | LOX IMVI 51.9 µM | LXFL 529 > 100 µM | MOLT-4 76.2 µM | NCI-H460 51.8 µM | OVCAR-3 26.5 µM | OVCAR-5 > 100 µM | OVCAR-8 81.1 µM | SF-268 > 100 µM | SK-MEL-5 30.2 µM | SN12C > 100 µM | SNB-19 > 100 µM | SNB-75 > 100 µM | SW-620 > 100 µM

Cc1cc2nc3c(=O)n(C)c(=O)nc-3n(-c3ccc(Cl)cc3)c2cc1C
inactive: HCC 2998 3.95 µM | HOP-92 13.9 µM | IGROV-1 14.6 µM | KM12 16 µM | LXFL 529 14 µM | MOLT-4 11.2 µM | NCI-H460 3.3 µM | OVCAR-3 2.57 µM | OVCAR-5 18.5 µM | OVCAR-8 13.1 µM | SF-268 11.4 µM | SK-MEL-5 1.72 µM | SN12C 5.85 µM | SNB-19 5.78 µM | SNB-75 11.4 µM | SW-620 4.2 µM

C=C1C2Oc3ccccc3C1N(c1ccccc1)O2 (stereo unspecified)
inactive: HCC 2998 31 µM | IGROV-1 34.4 µM | KM12 17.9 µM | LOX IMVI 13.7 µM | LXFL 529 35.2 µM | MOLT-4 20 µM | NCI-H460 20.8 µM | OVCAR-3 32.3 µM | OVCAR-5 80 µM | OVCAR-8 17 µM | SF-268 28.8 µM | SN12C 23.7 µM | SNB-19 49 µM | SNB-75 43.8 µM | SW-620 34.8 µM

CCCCCCCCCCNC(=S)OC
inactive: HCC 2998 43.6 µM | HOP-92 13.4 µM | IGROV-1 25.7 µM | LOX IMVI 15.8 µM | LXFL 529 33.7 µM | MOLT-4 5.83 µM | NCI-H460 > 100 µM | OVCAR-8 48.2 µM | SF-268 63 µM | SK-MEL-5 23 µM | SN12C 26.7 µM | SNB-19 59.2 µM | SNB-75 27.4 µM | SW-620 42.8 µM

CCC(=O)NC(Nc1ccccc1F)(C(F)(F)F)C(F)(F)F
inactive: BT-549 > 100 µM | HCC 2998 > 100 µM | HOP-92 > 100 µM | Hs-578T > 100 µM | IGROV-1 > 100 µM | KM12 > 100 µM | LOX IMVI > 100 µM | MDA-MB-231 > 100 µM | MOLT-4 > 100 µM | NCI-H460 > 100 µM | OVCAR-3 > 100 µM | OVCAR-5 > 100 µM | OVCAR-8 > 100 µM | SF-268 > 100 µM | SK-MEL-5 > 100 µM | SN12C > 100 µM | SNB-19 > 100 µM | SNB-75 > 100 µM | SW-620 > 100 µM

C1=Nc2ccccc2Cn2nncc21
inactive: HCC 2998 99.5 µM | HOP-92 54.7 µM | IGROV-1 67.5 µM | KM12 47.1 µM | LOX IMVI 46.9 µM | LXFL 529 98.2 µM | MOLT-4 > 100 µM | NCI-H460 > 100 µM | OVCAR-3 > 100 µM | OVCAR-5 > 100 µM | OVCAR-8 > 100 µM | SF-268 > 100 µM | SK-MEL-5 > 10 µM | SN12C > 100 µM | SNB-19 > 100 µM | SW-620 34 µM

CC(C)c1cccc2sc(NC(=O)C(=O)CC(=O)c3ccc(F)cc3)nc12
inactive: HOP-92 > 100 µM | IGROV-1 > 100 µM | KM12 > 100 µM | LOX IMVI > 100 µM | LXFL 529 > 100 µM | NCI-H460 > 100 µM | OVCAR-3 > 100 µM | OVCAR-5 > 100 µM | OVCAR-8 > 100 µM | SF-268 > 100 µM | SK-MEL-5 > 100 µM | SN12C > 100 µM | SNB-19 > 100 µM | SNB-75 59.7 µM | SW-620 > 100 µM

CC1=C(C(=O)NCc2ccccc2)C(c2ccc(C3C(C(=O)NCc4ccccc4)=C(C)NC(C)=C3C(=O)NCc3ccccc3)cc2)C(C(=O)NCc2ccccc2)=C(C)N1
inactive: HCC 2998 17.1 µM | HOP-92 17.8 µM | IGROV-1 18 µM | KM12 11.4 µM | LXFL 529 4.58 µM | MOLT-4 5.75 µM | NCI-H460 28.6 µM | OVCAR-3 10.4 µM | OVCAR-5 23.7 µM | OVCAR-8 7.03 µM | SF-268 15.1 µM | SK-MEL-5 16.1 µM | SN12C 6.5 µM | SNB-19 15.6 µM | SNB-75 > 10 µM | SW-620 10.2 µM

CC(Oc1ccc(OCC2CCCCC2)cc1)C(=O)N(CCO)CCO (stereo unspecified)
inactive: HCC 2998 32.9 µM | IGROV-1 > 100 µM | KM12 > 100 µM | LOX IMVI > 100 µM | LXFL 529 > 100 µM | MOLT-4 > 100 µM | NCI-H460 > 100 µM | OVCAR-3 > 100 µM | OVCAR-8 > 100 µM | SF-268 > 100 µM | SK-MEL-5 > 100 µM | SN12C > 100 µM | SNB-19 > 100 µM | SNB-75 92.9 µM
